Test results taken from USRE49735E1 (BRISTOL-MYERS SQUIBB COMPANY, priority 2010, dated 2023).
Several values for one entry are separate records, joined by “and”; a condition that tells them apart may be missing. Identical values can stand only once.

These molecules were tested against human mGluR5A (Homo sapiens, UniProt P41594) (assay: mGluR5 FLIPR Assay). Conditions: positive modulator activity; HEK293 (ZF) cells with human mGluR5A and rat GLAST; Ca++ response to ~EC10 glutamate.
Format: cell-based

Sequence of human mGluR5A (P41594 21-1180 isoform P41594-2): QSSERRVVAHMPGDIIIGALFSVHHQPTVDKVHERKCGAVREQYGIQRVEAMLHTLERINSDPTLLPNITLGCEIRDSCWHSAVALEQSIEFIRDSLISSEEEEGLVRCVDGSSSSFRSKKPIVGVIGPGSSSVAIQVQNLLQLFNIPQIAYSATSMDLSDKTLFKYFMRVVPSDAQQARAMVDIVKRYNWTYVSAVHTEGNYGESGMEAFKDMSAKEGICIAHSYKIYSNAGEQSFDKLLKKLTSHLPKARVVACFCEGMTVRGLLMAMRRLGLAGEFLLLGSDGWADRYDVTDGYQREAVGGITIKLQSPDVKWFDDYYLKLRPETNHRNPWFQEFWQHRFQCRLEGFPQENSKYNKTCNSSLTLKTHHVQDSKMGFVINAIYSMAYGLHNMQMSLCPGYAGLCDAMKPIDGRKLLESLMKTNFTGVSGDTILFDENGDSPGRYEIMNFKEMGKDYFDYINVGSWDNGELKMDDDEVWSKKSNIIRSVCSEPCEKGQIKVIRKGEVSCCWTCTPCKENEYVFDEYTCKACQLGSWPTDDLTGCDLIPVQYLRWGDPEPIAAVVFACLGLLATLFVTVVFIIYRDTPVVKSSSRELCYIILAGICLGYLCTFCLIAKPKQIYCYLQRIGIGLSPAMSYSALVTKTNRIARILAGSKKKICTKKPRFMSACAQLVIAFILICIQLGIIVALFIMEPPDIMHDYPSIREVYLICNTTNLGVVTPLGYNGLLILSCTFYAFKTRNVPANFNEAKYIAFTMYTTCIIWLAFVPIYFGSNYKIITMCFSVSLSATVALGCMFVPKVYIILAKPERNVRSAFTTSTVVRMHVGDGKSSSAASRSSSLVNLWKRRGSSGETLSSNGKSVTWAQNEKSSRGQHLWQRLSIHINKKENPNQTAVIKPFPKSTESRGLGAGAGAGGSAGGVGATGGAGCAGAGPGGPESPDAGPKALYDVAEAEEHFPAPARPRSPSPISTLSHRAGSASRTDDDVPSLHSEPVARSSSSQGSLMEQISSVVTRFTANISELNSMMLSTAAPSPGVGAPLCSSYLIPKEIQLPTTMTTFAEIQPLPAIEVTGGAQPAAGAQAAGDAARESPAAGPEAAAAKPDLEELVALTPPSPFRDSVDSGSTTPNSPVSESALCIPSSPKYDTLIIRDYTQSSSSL

EC50	Structure (SMILES)
100 to 1000 nM and 117 nM	O=C1N[C@H](c2cncc(C#Cc3ccccn3)c2)[C@@H](c2ccc(F)c(F)c2)O1 [Example 178]
< 100 nM	O=C1N[C@H](c2cncc(C#Cc3ccccc3)c2)[C@@H](c2ccc(F)cc2F)O1 [Example 179]
100 to 1000 nM and 259 nM	N#Cc1cccc(C#Cc2cncc([C@H]3NC(=O)O[C@@H]3c3ccc(F)cc3F)c2)c1 [Example 180]
100 to 1000 nM and 279 nM	O=C1N[C@H](c2cncc(C#Cc3cccnc3)c2)[C@@H](c2cc(F)cc(F)c2)O1 [Example 181]
< 100 nM	O=C1N[C@H](c2cncc(C#Cc3cncc(F)c3)c2)[C@@H](c2ccc(F)cc2F)O1 [Example 182]
< 100 nM	O=C1N[C@H](c2cncc(C#Cc3ccccn3)c2)[C@@H](c2ccc(F)cc2F)O1 [Example 183]
< 100 nM	O=C1N[C@H](c2cncc(C#Cc3cccnc3)c2)[C@@H](c2ccc(F)cc2F)O1 [Example 184]
< 100 nM	O=C1N[C@H](c2cncc(C#Cc3cccnc3)c2)[C@@H](c2cc(F)ccc2F)O1 [Example 186]
< 100 nM	O=C1N[C@H](c2cncc(C#Cc3cncc(F)c3)c2)[C@@H](c2cc(F)ccc2F)O1 [Example 187]
> 1000 nM	N#Cc1cccc(C#Cc2cncc([C@H]3NC(=O)O[C@@H]3c3cc(F)ccc3F)c2)c1 [Example 188]
> 1000 nM	O=C1N[C@H](c2cncc(C#Cc3ccccn3)c2)[C@@H](c2cc(F)ccc2F)O1 [Example 189]
> 1000 nM	N#Cc1cccc(C#Cc2cncc([C@@H]3NC(=O)O[C@H]3c3cc(F)cc(F)c3)c2)c1 [Example 190]
> 1000 nM	O=C1N[C@@H](c2cncc(C#Cc3ccccn3)c2)[C@H](c2cc(F)cc(F)c2)O1 [Example 191]
< 100 nM	COc1cccc([C@H]2OC(=O)N[C@@H]2c2cccc(C#Cc3cc(F)ccn3)c2)c1 [Example 193]
> 1000 nM	COc1cccc([C@H]2OC(=O)N[C@@H]2c2cccc(C#Cc3ccc(F)cn3)c2)c1 [Example 195]
< 100 nM	COc1cccc([C@H]2OC(=O)N[C@@H]2c2cccc(C#Cc3ncccc3F)c2)c1 [Example 196]
> 1000 nM	COc1cccc([C@H]2OC(=O)N[C@@H]2c2cccc(C#Cc3cnc4cc[nH]c4c3)c2)c1 [Example 197]
< 100 nM	O=C1N[C@H](c2cncc(C#Cc3ccccc3)c2)[C@@H](c2cccnc2)O1 [Example 198]
> 1000 nM	O=C1N[C@@H](c2cncc(C#Cc3ccccc3)c2)[C@H](c2cccnc2)O1 [Example 199]
> 1000 nM	COc1cccc([C@H]2OC(=O)N[C@@H]2c2cccc(C#Cc3ccnnc3)c2)c1 [Example 200]
100 to 1000 nM	O=C1N[C@H](c2cncc(C#Cc3cncc(F)c3)c2)[C@@H](c2cccnc2)O1 [Example 201]
> 1000 nM	O=C1N[C@@H](c2cncc(C#Cc3cncc(F)c3)c2)[C@H](c2cccnc2)O1 [Example 202]
< 100 nM and 2.5 nM	C[C@]1(c2ccc(F)cc2)OC(=O)N[C@@H]1c1cncc(C#Cc2ccccc2)c1 [Example 203]
< 100 nM	C[C@@]1(c2ccc(F)cc2)OC(=O)N[C@H]1c1cncc(C#Cc2ccccc2)c1 [Example 204]
< 100 nM and 2.2 nM	C[C@@]1(c2ccc(F)cc2)OC(=O)N[C@@H]1c1cncc(C#Cc2ccccc2)c1 [Example 205]
100 to 1000 nM	C[C@]1(c2ccc(F)cc2)OC(=O)N[C@H]1c1cncc(C#Cc2ccccc2)c1 [Example 206]
> 1000 nM	C[C@@]1(c2ccc(F)cc2)OC(=O)N[C@H]1c1cncc(C#Cc2cncc(F)c2)c1 [Example 207]

EC50	Structure (SMILES)
< 100 nM	C[C@]1(c2ccc(F)cc2)OC(=O)N[C@@H]1c1cncc(C#Cc2cncc(F)c2)c1 [Example 208]
< 100 nM	O=C1N[C@H](c2cncc(C#Cc3ncccc3F)c2)[C@@H](c2ccc(F)cc2)O1 [Example 209]
< 100 nM	O=C1N[C@H](c2cncc(C#Cc3ccccn3)c2)[C@@H](c2ccc(F)cc2)O1 [Example 210]
< 100 nM	N#Cc1cncc(C#Cc2cncc([C@H]3NC(=O)O[C@@H]3c3ccc(F)cc3)c2)c1 [Example 211]
< 100 nM	O=C1N[C@H](c2cncc(C#Cc3cnccn3)c2)[C@@H](c2ccc(F)cc2)O1 [Example 212]
< 100 nM	O=C1N[C@H](c2cncc(C#Cc3ccncc3)c2)[C@@H](c2ccc(F)cc2)O1 [Example 213]
< 100 nM	O=C1N[C@H](c2cncc(C#Cc3ccnc(F)c3)c2)[C@@H](c2ccc(F)cc2)O1 [Example 214]
< 100 nM	N#Cc1cccc(C#Cc2cncc([C@H]3NC(=O)O[C@@H]3c3ccc(F)cc3)c2)c1 [Example 215]
< 100 nM	O=C1N[C@H](c2cncc(C#Cc3cccc(F)n3)c2)[C@@H](c2ccc(F)cc2)O1 [Example 216]
< 100 nM	O=C1N[C@H](c2cccc(C#Cc3ccccc3)n2)[C@@H](c2cccc(F)c2)O1 [Example 217]
> 1000 nM	O=C1N[C@@H](c2cccc(C#Cc3ccccc3)n2)[C@H](c2cccc(F)c2)O1 [Example 218]
< 100 nM	C[C@]1(c2cncc(C#Cc3ccccc3)c2)NC(=O)O[C@@H]1c1ccc(F)cc1 [Example 219]
100 to 1000 nM	C[C@@]1(c2cncc(C#Cc3ccccc3)c2)NC(=O)O[C@H]1c1ccc(F)cc1 [Example 220]
> 1000 nM	C[C@@]1(c2cccc(F)c2)OC(=O)N[C@H]1c1cncc(C#Cc2ccccc2)c1 [Example 221]
< 100 nM	C[C@]1(c2cccc(F)c2)OC(=O)N[C@@H]1c1cncc(C#Cc2ccccc2)c1 [Example 222]
100 to 1000 nM	C[C@]1(c2cccc(F)c2)OC(=O)N[C@H]1c1cncc(C#Cc2ccccc2)c1 [Example 223]
> 1000 nM	C[C@@]1(c2cccc(F)c2)OC(=O)N[C@@H]1c1cncc(C#Cc2ccccc2)c1 [Example 224]
> 1000 nM	C[C@@]1(c2cncc(C#Cc3ccccc3)c2)NC(=O)O[C@@H]1c1ccccc1 [Example 225]
< 100 nM	C[C@]1(c2cncc(C#Cc3ccccc3)c2)NC(=O)O[C@H]1c1ccccc1 [Example 226]
< 100 nM	C[C@]1(c2ccccc2)OC(=O)N[C@@H]1c1cncc(C#Cc2ccccc2)c1 [Example 227]
> 1000 nM	C[C@@]1(c2ccccc2)OC(=O)N[C@@H]1c1cncc(C#Cc2ccccc2)c1 [Example 228]
< 100 nM	C[C@]1(c2cncc(C#Cc3ncccc3F)c2)NC(=O)O[C@@H]1c1ccccc1 [Example 229]
> 1000 nM	C[C@@]1(c2cncc(C#Cc3ncccc3F)c2)NC(=O)O[C@H]1c1ccccc1 [Example 230]
< 100 nM	O=C1N[C@H](c2cccc(C#Cc3ccccc3)c2)[C@@H](c2ccccn2)O1 [Example 231]
> 1000 nM	O=C1N[C@@H](c2cccc(C#Cc3ccccc3)c2)[C@H](c2ccccn2)O1 [Example 232]
< 100 nM	O=C1N[C@H](c2cccc(C#Cc3ccccn3)c2)[C@@H](c2ccncc2)O1 [Example 233]
< 100 nM and 2.7 nM	O=C1N[C@H](c2cccc(C#Cc3ccccc3)c2)[C@@H](c2ccncc2)O1 [Example 234]

EC50	Structure (SMILES)
100 to 1000 nM and 211 nM	O=C1N[C@H](c2cccc(C#Cc3cccnc3)c2)[C@@H](c2ccncc2)O1 [Example 235]
> 1000 nM	O=C1N[C@@H](c2cccc(C#Cc3cccnc3)c2)[C@H](c2ccncc2)O1 [Example 236]
100 to 1000 nM	O=C1N[C@H](c2cccc(C#Cc3cncc(F)c3)c2)[C@@H](c2cccnc2)O1 [Example 237]
> 1000 nM	O=C1N[C@@H](c2cccc(C#Cc3ccccc3)c2)[C@H](c2ccncn2)O1 [Example 238]
< 100 nM	O=C1N[C@H](c2cccc(C#Cc3ccccc3)c2)[C@@H](c2ccncn2)O1 [Example 239]
> 1000 nM	O=C1N[C@@H](c2cccc(C#Cc3cccnc3)c2)[C@H](c2ccncn2)O1 [Example 240]
> 1000 nM	O=C1N[C@H](c2cccc(C#Cc3cccnc3)c2)[C@@H](c2ccncn2)O1 [Example 241]
> 1000 nM	O=C1N[C@@H](c2cccc(C#Cc3ccccc3)c2)[C@H](c2cccnn2)O1 [Example 242]
100 to 1000 nM and 272 nM	O=C1N[C@H](c2cccc(C#Cc3ccccc3)c2)[C@@H](c2cccnn2)O1 [Example 243]
> 1000 nM	O=C1N[C@H](c2cccc(C#Cc3cncc(F)c3)c2)[C@@H](c2ccncn2)O1 [Example 244]
> 1000 nM	O=C1N[C@@H](c2cccc(C#Cc3ccccc3)c2)[C@H](c2cnccn2)O1 [Example 245]
> 1000 nM	O=C1N[C@H](c2cccc(C#Cc3ccccc3)c2)[C@@H](c2cnccn2)O1 [Example 246]
> 1000 nM	O=C1N[C@H](c2cccc(C#Cc3ccccc3)c2)[C@H](c2cnccn2)O1 [Example 247]
> 1000 nM	O=C1N[C@@H](c2cccc(C#Cc3cccnc3)c2)[C@H](c2cnccn2)O1 [Example 248]
> 1000 nM	O=C1N[C@H](c2cccc(C#Cc3cccnc3)c2)[C@@H](c2cnccn2)O1 [Example 249]
> 1000 nM	O=C1N[C@@H](c2cccc(C#Cc3cccnc3)c2)[C@@H](c2cnccn2)O1 [Example 250]
> 1000 nM	O=C1N[C@H](c2cccc(C#Cc3cccnc3)c2)[C@H](c2cnccn2)O1 [Example 251]
> 1000 nM	O=C1N[C@H](c2ccnc(C#Cc3cccc(F)c3)c2)[C@@H](c2cccnc2)O1 [Example 252]
> 1000 nM	O=C1N[C@H](c2ccnc(C#Cc3cncc(F)c3)c2)[C@@H](c2cccnc2)O1 [Example 253]
> 1000 nM	O=C1N[C@H](c2ccnc(C#Cc3ccccc3)c2)[C@@H](c2cccnc2)O1 [Example 254]
> 1000 nM	N#Cc1cccc(C#Cc2cc([C@H]3NC(=O)O[C@@H]3c3cccnc3)ccn2)c1 [Example 255]
< 100 nM	O=C1N[C@H](c2cncc(C#Cc3cncc(F)c3)c2)[C@@H](c2cccc(F)c2)O1 [Example 256]
100 to 1000 nM and 164 nM	N#Cc1cncc(C#Cc2cncc([C@H]3NC(=O)O[C@@H]3c3cccc(F)c3)c2)c1 [Example 257]
< 100 nM	O=C1N[C@H](c2ccnc(C#Cc3cccnc3)c2)[C@@H](c2cccc(F)c2)O1 [Example 258]
< 100 nM and 1.9 nM	O=C1N[C@H](c2ccnc(C#Cc3ccccc3)c2)[C@@H](c2cccc(F)c2)O1 [Example 259]
> 1000 nM	COc1cccc([C@H]2OC(=O)N[C@@H]2c2cccc(C#Cc3ccc(SC)cc3)c2)c1 [Example 260]
